The source of these data is patent publication US20060257543A1, “Molecules comprising linked organic moieties as flavor modifiers for comestible compositions” (priority 2005, published 2006).

Series [1] concerns the target T1, hT1R2/hT1R3 sweet receptor expressed in an HEK293 cell line (Homo sapiens, UniProt Q7RTX0+Q8TE23).
T1 construct: expressed in transfected cells; host or cells: HEK293 derivative, clone S-9
T1 sequence (Q8TE23 20-839): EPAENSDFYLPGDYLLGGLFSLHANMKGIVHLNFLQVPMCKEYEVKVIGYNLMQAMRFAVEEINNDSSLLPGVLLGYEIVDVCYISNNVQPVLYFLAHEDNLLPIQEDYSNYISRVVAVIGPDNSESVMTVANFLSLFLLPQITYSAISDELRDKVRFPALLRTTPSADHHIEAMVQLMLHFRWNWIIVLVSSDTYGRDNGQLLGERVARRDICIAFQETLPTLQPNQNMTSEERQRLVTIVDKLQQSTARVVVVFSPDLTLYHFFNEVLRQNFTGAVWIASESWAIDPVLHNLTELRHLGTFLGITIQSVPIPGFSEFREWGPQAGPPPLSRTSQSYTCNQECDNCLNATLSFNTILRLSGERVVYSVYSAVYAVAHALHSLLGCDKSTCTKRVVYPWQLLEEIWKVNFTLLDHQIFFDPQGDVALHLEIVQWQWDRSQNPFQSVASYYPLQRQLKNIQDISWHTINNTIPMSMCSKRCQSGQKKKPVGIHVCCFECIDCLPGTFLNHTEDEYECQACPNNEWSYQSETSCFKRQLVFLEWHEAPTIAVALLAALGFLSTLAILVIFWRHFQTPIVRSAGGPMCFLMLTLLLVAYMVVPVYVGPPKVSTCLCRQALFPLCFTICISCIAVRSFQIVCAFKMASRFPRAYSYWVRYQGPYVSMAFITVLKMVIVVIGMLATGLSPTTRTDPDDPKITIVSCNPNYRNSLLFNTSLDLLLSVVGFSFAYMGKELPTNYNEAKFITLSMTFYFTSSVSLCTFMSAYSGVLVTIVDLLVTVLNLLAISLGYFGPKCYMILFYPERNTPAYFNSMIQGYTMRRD
T1 sequence (Q7RTX0 21-852): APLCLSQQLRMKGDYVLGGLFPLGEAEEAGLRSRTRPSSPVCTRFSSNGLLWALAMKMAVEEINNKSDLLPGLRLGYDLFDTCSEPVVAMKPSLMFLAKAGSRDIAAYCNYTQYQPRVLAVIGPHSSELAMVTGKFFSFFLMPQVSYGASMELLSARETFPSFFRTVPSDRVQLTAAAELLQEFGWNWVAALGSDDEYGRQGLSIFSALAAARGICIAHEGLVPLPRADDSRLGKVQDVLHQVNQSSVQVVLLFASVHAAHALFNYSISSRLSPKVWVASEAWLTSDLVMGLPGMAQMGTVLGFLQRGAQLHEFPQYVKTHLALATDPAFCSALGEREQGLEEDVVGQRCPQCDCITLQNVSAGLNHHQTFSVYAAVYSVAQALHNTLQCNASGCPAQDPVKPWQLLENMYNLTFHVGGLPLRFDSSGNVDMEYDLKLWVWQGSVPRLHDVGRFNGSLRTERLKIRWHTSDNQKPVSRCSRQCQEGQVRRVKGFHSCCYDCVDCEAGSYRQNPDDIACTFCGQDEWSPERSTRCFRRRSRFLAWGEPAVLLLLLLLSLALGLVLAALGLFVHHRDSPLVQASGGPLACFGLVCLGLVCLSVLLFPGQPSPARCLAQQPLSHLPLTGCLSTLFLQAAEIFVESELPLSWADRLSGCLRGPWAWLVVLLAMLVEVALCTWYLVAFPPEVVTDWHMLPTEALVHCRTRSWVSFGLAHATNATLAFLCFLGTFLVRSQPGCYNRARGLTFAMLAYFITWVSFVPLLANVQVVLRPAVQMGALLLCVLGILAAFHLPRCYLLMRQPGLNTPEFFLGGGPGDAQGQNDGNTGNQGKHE
Briefly: In vitro hT1R2/hT1R3 sweet taste receptor activation assay (FLIPR, dose response). The series is classed as cell-based. The settings on record: read-out: EC50 for activation of a hT1R2/hT1R3 sweet receptor. From the text: An HEK293 cell line derivative (see Chandrashekar, J., Mueller, K. L., Hoon, M. A., Adler, E., Feng, L., Guo, W., Zuker, C. S., Ryba, N. J.,. Cel,l 2000, 100, 703-711.) that stably expresses Gα15 and hT1R2/hT1R3 (see Li, X., Staszewski, L., Xu, H., Durick, K., Zoller, M., Adler, E. Proc Natl Acad Sci USA 2002, 99, 4692-4696, and PCT Publication No. WO 03/001876) was used to identify compounds with sweet taste enhancing properties. These references are hereby incorporated herein by reference for their methods of preparing and maintaing the cell lines discussed below, and for their methods for screeing compounds that inhibit the biological receptors.
Compounds covered in this document were initially selected based on their activity on the hT1R2/hT1R3—HEK293-Gα15 cell line (Li, et al. vide supra). Activity was determined using an automated fluorometric imaging assay on a FLIPR instrument (Fluorometric Intensity Plate Reader, Molecular Devices, Sunnyvale, Calif.) (designated FLIPR assay). Cells from one clone (designated S-9 cells) were seeded into 384-well plates (at approximately 50,000 cells per well) in a medium containing DMEM Low Glucose (Invitrogen, Carlsbad, Calif.), 10% dialyzed fetal bovine serum (Invitrogen, Carlsbad, Calif.), 100 Units/ml Penicillin G, and 100 μg/ml Streptomycin (Invitrogen, Carlsbad, Calif.) (Li, et al. vide supra) see also World Patent No. WO 03/001876 A2). S-9 cells were grown for 24 hours at 37° C. S-9 cells were then loaded with the calcium dye Fluo-3AM (Molecular Probes, Eugene, Oreg.), 4 μM in a phosphate buffered saline (D-PBS) (Invitrogen, Carlsbad, Calif.), for 1 hour at room temperature. After replacement with 25 μl D-PBS, stimulation was performed in the FLIPR instrument and at room temperature by the addition of 25 μl D-PBS supplemented with different stimuli at concentrations corresponding to twice the desired final level. Receptor activity was quantified by determining the maximal fluorescence increases (using a 480 nm excitation and 535 nm emission) after normalization to basal fluorescence intensity measured before stimulation.
For dose-responses analysis, stimuli were presented in duplicates at 10 different concentrations ranging from 60 nM to 30 μM. Activities were normalized to the response obtained with 400 mM D-fructose, a concentration that elicits maximum receptor response. EC50s were determined using a non-linear regression algorithm (using a Senomyx, Inc. software), where the Hill slope, bottom asymptotes and top asymptotes were allow to vary. Identical results were obtained when analyzing the dose-response data using commercially available software for non-linear regression analysis such as GraphPad PRISM (San Diego, Calif.).

`CC(C)Oc1ccc(NC(=S)NCc2ccsc2)cc1` [Example 3, 1-(4-Isopropoxyphenyl)-3-(thiophen-3-ylmethyl)thiourea] gave a melting point of 80.5 to 81.5 °C. In addition, the EC50 in series [1] came out at 150 nM.
For the compound `CC(C)Oc1ccc(NC(=S)NCc2ccoc2)cc1` [Example 4, 1-(furan-3-ylmethyl)-3-(4-isopropoxyphenyl)thiourea], the melting point was 89 to 90 °C. In addition, in series [1], the EC50 was found to be 230 nM.
`COc1ccc(CNc2ccccc2C)cc1O` [Example 12, 5-((o-toluidino)methyl)-2-methoxyphenol] came in with a melting point of 104 to 105 °C. Also, in series [1], the EC50 was determined as 2980 nM.

As usually defined, the melting point is the temperature of the solid-liquid transition.
